Results: ChEMBL document CHEMBL5608212, “N-acylbenzimidazoles as selective Acylators of the catalytic cystein of the coronavirus 3CL protease” (Eur J Med Chem, 2024)
Activity calls are given as the source filed them. No cut-off for these calls is given here.

target: T1, Replicase polyprotein 1ab (Severe acute respiratory syndrome coronavirus 2, UniProt P0DTD1); experiment: Inhibition of SARS-CoV-2 3CLpro using Dabcyl-KTSAVLQSGFRKM-Glu(Edans) as substrate preincubated for 30 mins followed by substrate addition and measured after 30 mins by FRET assay; conditions: not given

Compound	IC50 [nM]
CSc1nc2cc3c(cc2n1C(=O)c1ccc(C)cc1)OCCO3	140

target: Replicase polyprotein 1ab (Severe acute respiratory syndrome coronavirus 2) (UniProt P0DTD1); experiment: Binding affinity to SARS-CoV-2 3CLpro assessed as change in melting temperature at 40 uM measured after 30 mins by SYPRO Orange staining based thermal shift assay; conditions: not given

Compound	ΔTm [°C]
CSc1nc2cc3c(cc2n1C(=O)c1ccc(C)cc1)OCCO3	1.47
CSc1nc2ccccc2n1C(=O)c1ccc(C)cc1	4.2

target: T1, Replicase polyprotein 1ab; experiment: Inhibition of SARS-CoV-2 3CLpro using Dabcyl-KTSAVLQSGFRKM-Glu(Edans) as substrate preincubated for 60 mins in absence of GSH followed by substrate addition and measured after 30 mins by FRET assay; conditions: read-out: IC50

Compound	IC50 [nM]
CSc1nc2cc3c(cc2n1C(=O)c1ccc(C)cc1)OCCO3	380

same assay, conditions: read-out: pIC50 (converted)

Compound	IC50 [nM]
CSc1nc2cc3c(cc2n1C(=O)c1ccc(C)cc1)OCO3	85.1

target: T1, Replicase polyprotein 1ab; experiment: Inhibition of SARS-CoV-2 3CLpro using Dabcyl-KTSAVLQSGFRKM-Glu(Edans) as substrate preincubated for 60 mins in presence of GSH followed by substrate addition and measured after 30 mins by FRET assay; conditions: read-out: IC50

Compound	IC50 [nM]
CSc1nc2cc3c(cc2n1C(=O)c1ccc(C)cc1)OCCO3	390

same assay, conditions: read-out: pIC50 (converted)

Compound	IC50 [nM]
CSc1nc2cc3c(cc2n1C(=O)c1ccc(C)cc1)OCO3	120

target: Replicase polyprotein 1ab (Severe acute respiratory syndrome coronavirus 2) (UniProt P0DTD1); experiment: Binding affinity to 2H,15N-labelled SARS-CoV-2 3CLpro substrate binding pocket assessed as chemical shift perturbations at interface of domains I and II at 500 uM by 2D 1H,15N-HSQC NMR analysis; conditions: not given

Compound	Activity
CSc1nc2cc3c(cc2n1C(=O)c1ccc(C)cc1)OCCO3	Active

target: T1, Replicase polyprotein 1ab; experiment: Inhibition of SARS-CoV-2 3CLpro using Dabcyl-KTSAVLQSGFRKM-Glu(Edans) as substrate preincubated for 1 hrs in presence of 2 mM GSH followed by substrate addition and measured after 30 mins by FRET assay; conditions: not given

Compound	pIC50
Cc1ccc(C(=O)n2c(S)nc3ccccc32)cc1	< 4
Cc1ccc(C(=O)n2c(N)nc3ccccc32)cc1	< 4
CSc1nc2ccccc2n1C(=O)c1ccccc1C(F)(F)F	< 4
Cc1ccc(C(=O)n2ncc3ccccc32)cc1	< 4
CSc1nc2ccccc2n1C(=O)c1ccccc1C	< 4
Cc1ccc(C(=O)n2c(C#N)nc3ccccc32)cc1	< 4
CSc1nc2ccccc2n1S(=O)(=O)c1ccc(C)cc1	< 4
CSc1nc2ccccc2n1C(=O)NCc1ccc(C)cc1	< 4
CSc1nc2ccccc2n1C(C)=O	< 4
CSc1nc2ccccc2n1C(=O)Cc1ccccc1	< 4
COc1nc2ccccc2n1C(=O)c1ccc(C)cc1	< 4
CSc1nc2ccccc2n1C(=O)Oc1ccccc1	< 4
Cc1ccc(C(=O)n2nnc3ccccc32)cc1	< 4
CSc1nc2ccccc2n1C(=O)c1ccc(C(C)(C)C)cc1	< 4
CSc1nc2ccccc2n1C(=O)c1ccncc1	< 4
CSc1nc2ccccc2n1Cc1ccc(C)cc1	< 4
Cc1ccc(C(=O)n2c(-c3ccccc3)nc3ccccc32)cc1	< 4
Cc1ccc(C(=O)n2ccc3ccccc32)cc1	< 4

same assay, conditions: read-out: IC50

Compound	IC50 [nM]
Cc1ccc(C(=O)n2c(S)nc3ccccc32)cc1	> 100000
Cc1ccc(C(=O)n2c(N)nc3ccccc32)cc1	> 100000
CSc1nc2cc3c(cc2n1C(=O)c1ccc(C)c(F)c1)OCCO3	270
CSc1nc2ccccc2n1C(=O)c1ccccc1C(F)(F)F	> 100000
Cc1ccc(C(=O)n2c(C)nc3cc4c(cc32)OCCO4)cc1	7500
CSc1nc2ccccc2n1C(=O)c1cccc(C)c1	2100
Cc1ccc(C(=O)n2c(C(F)(F)F)nc3ccccc32)cc1	17000
CSc1nc2cc3c(cc2n1C(=O)c1ccc(C)c(F)c1)OCO3	70
CSc1nc2cc(C#N)ccc2n1C(=O)c1ccc(C)c(F)c1	890
CSc1nc2ccccc2n1C(=O)c1ccccc1	2500
COc1ccc(C(=O)n2c(SC)nc3ccccc32)cc1OC	4000
Cc1ccc(C(=O)n2ncc3ccccc32)cc1	> 100000
CSc1nc2ccccc2n1C(=O)c1ccccc1C	> 100000
CSc1nc2ccccc2n1C(=O)c1ccc(C)c(F)c1	90
Cc1ccc(C(=O)n2c(C#N)nc3ccccc32)cc1	> 100000
CSc1nc2ccccc2n1S(=O)(=O)c1ccc(C)cc1	> 100000
CSc1nc2ccccc2n1C(=O)NCc1ccc(C)cc1	> 100000
CSc1nc2ccccc2n1C(C)=O	> 100000
CSc1nc2cc3c(cc2n1C(=O)c1ccc(C)cc1)OCCO3	140
CSc1nc2ccccc2n1C(=O)c1ccc(C)cc1	390
CSc1nc2ccccc2n1C(=O)Cc1ccccc1	> 100000
COc1nc2ccccc2n1C(=O)c1ccc(C)cc1	> 100000
CSc1nc2ccccc2n1C(=O)Oc1ccccc1	> 100000
Cc1ccc(C(=O)n2nnc3ccccc32)cc1	> 100000
CSc1nc2ccccc2n1C(=O)c1ccc(C(C)(C)C)cc1	> 100000
CSc1nc2ccccc2n1C(=O)c1ccncc1	> 100000
CSc1nc2ccccc2n1Cc1ccc(C)cc1	> 100000
Cc1ccc(C(=O)n2c(-c3ccccc3)nc3ccccc32)cc1	> 100000
CSc1nc2cc3c(cc2n1C(=O)c1ccc(C)cc1)OCO3	70
Cc1ccc(C(=O)n2ccc3ccccc32)cc1	> 100000

tested on: not listed separately; experiment: GSH reactivity in HEPES buffer at pH 7.4 assessed as half life at 1 uM; type: ADME; conditions: glutathione (GSH) in HEPES buffer

Compound	half-life at 1 µM [min]
CSc1nc2cc3c(cc2n1C(=O)c1ccc(C)cc1)OCO3	16

target: Replicase polyprotein 1ab (Severe acute respiratory syndrome coronavirus 2) (UniProt P0DTD1); experiment: Reversible inhibition of SARS-CoV-2 3CLpro using Dabcyl-KTSAVLQSGFRKM-Glu(Edans) as substrate at 10 times IC50 preincubated for 1 hr followed by 100-fold dilution to 0.1 times IC50 with substrate solution by jump dilution assay; conditions: not given

Compound	inhibition
CSc1nc2cc3c(cc2n1C(=O)c1ccc(C)cc1)OCO3	Active

tested on: not listed separately; experiment: Inhibition of C-terminal 6-His tagged recombinant SARS-CoV 3CLpro (Ser1 to Gln306 residues) extracted from Escherichia coli using Dabcyl-KTSAVLQSGFRKM-Glu(Edans) as substrate preincubated 1 hr in presence of 2 mM GSH followed by substrate addition and measured after 30 mins by FRET assay; set-up: species or system Severe acute respiratory syndrome-related coronavirus; conditions: not given

Compound	pIC50	IC50 [nM]
CSc1nc2cc3c(cc2n1C(=O)c1ccc(C)c(F)c1)OCO3	6.49	–
CSc1nc2ccccc2n1C(=O)c1ccc(C)c(F)c1	6.47	340
CSc1nc2cc3c(cc2n1C(=O)c1ccc(C)cc1)OCCO3	5.77	1700
CSc1nc2ccccc2n1C(=O)c1ccc(C)cc1	5.81	1600
CSc1nc2cc3c(cc2n1C(=O)c1ccc(C)cc1)OCO3	6.82	150

target: Replicase polyprotein 1ab (Human coronavirus 229E, UniProt P0C6X1); experiment: Inhibition of hCoV-229E 3CLpro using Dabcyl-KTSAVLQSGFRKM-Glu(Edans) as substrate preincubated 1 hr in presence of 2 mM GSH followed by substrate addition and measured after 30 mins by FRET assay; conditions: not given
Sequence (P0C6X1 2966-3267 limits assumed): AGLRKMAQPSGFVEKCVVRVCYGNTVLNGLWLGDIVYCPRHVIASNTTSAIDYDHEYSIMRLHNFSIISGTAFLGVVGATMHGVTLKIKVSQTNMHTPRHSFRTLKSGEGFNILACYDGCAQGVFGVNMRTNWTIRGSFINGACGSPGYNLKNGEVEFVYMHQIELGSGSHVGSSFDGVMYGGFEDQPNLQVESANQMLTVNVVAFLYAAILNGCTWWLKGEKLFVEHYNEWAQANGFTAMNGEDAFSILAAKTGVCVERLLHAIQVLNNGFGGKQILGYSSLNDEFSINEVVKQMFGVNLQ

Compound	IC50 [nM]
CSc1nc2cc3c(cc2n1C(=O)c1ccc(C)c(F)c1)OCO3	320
CSc1nc2ccccc2n1C(=O)c1ccc(C)c(F)c1	350
CSc1nc2cc3c(cc2n1C(=O)c1ccc(C)cc1)OCCO3	190
CSc1nc2ccccc2n1C(=O)c1ccc(C)cc1	1900
CSc1nc2cc3c(cc2n1C(=O)c1ccc(C)cc1)OCO3	750

tested on: not listed separately; experiment: Inhibition of MERS-CoV 3CLpro using Dabcyl-KTSAVLQSGFRKM-Glu(Edans) as substrate preincubated 1 hr in presence of 2 mM GSH followed by substrate addition and measured after 30 mins by FRET assay; set-up: species or system Middle East respiratory syndrome-related coronavirus; conditions: not given

Compound	IC50 [nM]	pIC50
CSc1nc2cc3c(cc2n1C(=O)c1ccc(C)c(F)c1)OCO3	2900	5.53
CSc1nc2ccccc2n1C(=O)c1ccc(C)c(F)c1	1300	5.89
CSc1nc2cc3c(cc2n1C(=O)c1ccc(C)cc1)OCCO3	2500	5.6
CSc1nc2ccccc2n1C(=O)c1ccc(C)cc1	5000	5.3
CSc1nc2cc3c(cc2n1C(=O)c1ccc(C)cc1)OCO3	990	6.01

target: T2, Calpain-1 catalytic subunit (Homo sapiens, UniProt P07384); experiment: Inhibition of human calpain 1 using (DABCYL)-TPLKSPPPSPR-(EDANS) as substrate incubated for 30 mins in presence of calcium ions and GSH and measured after 30 mins by fluorescence based assay; conditions: not given
T2 sequence (P07384 whole entry): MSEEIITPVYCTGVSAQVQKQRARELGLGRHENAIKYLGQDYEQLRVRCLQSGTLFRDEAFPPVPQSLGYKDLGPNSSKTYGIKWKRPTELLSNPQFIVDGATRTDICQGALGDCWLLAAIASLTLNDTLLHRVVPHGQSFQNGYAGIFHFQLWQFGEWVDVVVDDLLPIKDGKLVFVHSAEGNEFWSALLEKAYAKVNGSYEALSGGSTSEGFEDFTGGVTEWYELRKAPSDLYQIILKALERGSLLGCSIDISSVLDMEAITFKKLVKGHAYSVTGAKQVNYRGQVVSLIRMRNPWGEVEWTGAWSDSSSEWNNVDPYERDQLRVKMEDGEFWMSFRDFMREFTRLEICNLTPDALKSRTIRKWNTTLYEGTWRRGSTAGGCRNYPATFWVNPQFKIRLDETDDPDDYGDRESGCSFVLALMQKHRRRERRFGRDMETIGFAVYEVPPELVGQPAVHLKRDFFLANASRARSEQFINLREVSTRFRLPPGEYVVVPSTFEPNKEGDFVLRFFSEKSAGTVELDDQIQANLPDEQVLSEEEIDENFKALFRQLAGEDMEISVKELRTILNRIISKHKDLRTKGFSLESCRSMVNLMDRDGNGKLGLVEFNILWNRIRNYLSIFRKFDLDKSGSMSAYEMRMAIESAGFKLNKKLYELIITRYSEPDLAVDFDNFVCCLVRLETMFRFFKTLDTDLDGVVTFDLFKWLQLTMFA

Compound	IC50 [nM]
CSc1nc2ccccc2n1C(=O)c1ccc(C)c(F)c1	> 100000
CSc1nc2cc3c(cc2n1C(=O)c1ccc(C)cc1)OCCO3	> 100000
CSc1nc2ccccc2n1C(=O)c1ccc(C)cc1	> 100000
CSc1nc2cc3c(cc2n1C(=O)c1ccc(C)cc1)OCO3	> 100000

tested on: not listed separately; experiment: Inhibition of human cathepsin 1 using QXL520/HiLyteFlour 488 as substrate preincubated for 60 mins and measured after 30 mins by fluorescence based assay; conditions: not given

Compound	IC50 [nM]
CSc1nc2ccccc2n1C(=O)c1ccc(C)c(F)c1	> 100000
CSc1nc2cc3c(cc2n1C(=O)c1ccc(C)cc1)OCCO3	> 100000
CSc1nc2ccccc2n1C(=O)c1ccc(C)cc1	> 100000
CSc1nc2cc3c(cc2n1C(=O)c1ccc(C)cc1)OCO3	> 100000

tested on: Human coronavirus 229E; experiment: Antiviral activity against HCoV-229E expressing renilla luciferase reporter gene infected in human Huh-7 cells pre-infected […] for 1 hr followed by compound addition and measured after 6 hrs by luciferase based assay; type: functional, organism-based; conditions: not given

Compound	EC50 [nM]
CSc1nc2cc3c(cc2n1C(=O)c1ccc(C)c(F)c1)OCO3	29200
CSc1nc2ccccc2n1C(=O)c1ccc(C)c(F)c1	35600
CSc1nc2cc3c(cc2n1C(=O)c1ccc(C)cc1)OCCO3	7300
CSc1nc2cc3c(cc2n1C(=O)c1ccc(C)cc1)OCO3	4800

tested on: SARS-CoV-2; experiment: microbe, parasite or virus in culture; conditions: Severe acute respiratory syndrome coronavirus 2, Vero

Compound	EC50 [nM]
CSc1nc2cc3c(cc2n1C(=O)c1ccc(C)cc1)OCO3	3100
